ChEMBL document CHEMBL1201862, “PubChem BioAssay data set” (2004)
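Following 48 hours of exposure in 96-well plates, responses at five concentrations were used to interpolate endpoints linearly. Here, GI50 denotes the concentration required for 50% inhibition of growth.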 Calls of active or inactive are those of the source. No stated cut-off is given here; in the data, active = GI50 up to about 1.1 µM and inactive = higher.

What was measured:
Assay in all cases: growth of human tumour cells (NCI), 48 h
DLD-1 = system: DLD-1
DMS-114 = system: DMS-114
DMS-273 = system: DMS-273
HOP-18 = system: HOP-18
KM-20L2 = system: KM-20L2
M19-MEL = system: M19-MEL
RXF 631 = system: RXF 631
SNB-78 = system: SNB-78
XF498 = system: XF498

SMILES	GI50 (DLD-1)	GI50 (DMS-114)	GI50 (DMS-273)	GI50 (HOP-18)	GI50 (KM-20L2)	GI50 (M19-MEL)	GI50 (RXF 631)	GI50 (SNB-78)	GI50 (XF498)
CCN(CC)c1ccc(/N=N/c2ccc(-c3nc4ccc[n+](C)c4o3)cc2)cc1	7.33 µM (inactive)	3.7 µM (inactive)	10.5 µM (inactive)	23.7 µM (inactive)	13 µM (inactive)	4.98 µM (inactive)	12.7 µM (inactive)	11.4 µM (inactive)	11.3 µM (inactive)
O=[N+]([O-])c1ccc(Cl)c(C2CC(c3cccc4ccccc34)=Nc3ccccc3S2)c1 (stereo unspecified)	13.2 µM (inactive)	20.2 µM (inactive)	20.4 µM (inactive)	26.9 µM (inactive)	29.3 µM (inactive)	20.2 µM (inactive)	> 65 µM (inactive)	26.5 µM (inactive)	
O=c1c2cc(Cl)ccc2sc2cccc(Cl)c12			> 100 µM (inactive)		> 100 µM (inactive)	> 100 µM (inactive)	> 100 µM (inactive)	> 100 µM (inactive)	
CCN(CC)CC(O)CNc1ccc(NCC2CO2)c2c1C(=O)c1ccccc1C2=O (stereo unspecified)	1.9 µM (inactive)	1.04 µM (active)	0.242 µM (active)	16.6 µM (inactive)	0.692 µM (active)	0.125 µM (active)	0.272 µM (active)	0.398 µM (active)	
O=C(Nc1c(Cl)cc([N+](=O)[O-])cc1Cl)C(=O)C(C(=O)c1ccncc1)C1OC(=O)c2ccccc21 (stereo unspecified)	> 100 µM (inactive)	> 100 µM (inactive)	> 100 µM (inactive)	> 100 µM (inactive)	> 100 µM (inactive)	> 100 µM (inactive)	> 100 µM (inactive)	> 100 µM (inactive)	> 100 µM (inactive)
OC(C1CO1)C(O)C1CO1 (stereo unspecified)	> 150 µM (inactive)	35.6 µM (inactive)	8.81 µM (inactive)	145 µM (inactive)	140 µM (inactive)	74.8 µM (inactive)		85.9 µM (inactive)	37.2 µM (inactive)
N#Cc1ccccc1NC(=O)/C(=N\Nc1ccc([N+](=O)[O-])cc1)C1C(=O)NC(=O)NC1=O	> 100 µM (inactive)	> 100 µM (inactive)			> 100 µM (inactive)	> 100 µM (inactive)		> 100 µM (inactive)	
O=C(c1ccc(Cl)cc1)N(C(=S)N1CCN(c2ccccc2)CC1)C1CCCCC1	> 100 µM (inactive)	70 µM (inactive)	46.9 µM (inactive)	> 100 µM (inactive)	> 100 µM (inactive)	> 100 µM (inactive)		> 100 µM (inactive)	
COc1ccc(NC(=O)C(=O)c2c(O)c3ccc(O)cc3oc2=O)c([N+](=O)[O-])c1	> 100 µM (inactive)	> 100 µM (inactive)	> 100 µM (inactive)		> 100 µM (inactive)	> 100 µM (inactive)	> 100 µM (inactive)		
O=C(C(=O)n1ncc(Cl)c(Cl)c1=O)n1ncc(Cl)c(Cl)c1=O	16 µM (inactive)	27.4 µM (inactive)	17.9 µM (inactive)	31.8 µM (inactive)	29.6 µM (inactive)	20.4 µM (inactive)	38 µM (inactive)	28.6 µM (inactive)	26.2 µM (inactive)
C=C(CN(C)C)C(=O)c1ccccc1C	20.9 µM (inactive)	21.2 µM (inactive)	24.5 µM (inactive)	22.9 µM (inactive)	> 67.1 µM (inactive)	23.4 µM (inactive)	> 100 µM (inactive)	> 100 µM (inactive)	> 50.9 µM (inactive)
O=C(N/C=C1\C(=O)Oc2ccccc2C1=O)Nc1ccccc1	42.6 µM (inactive)	44.9 µM (inactive)	> 100 µM (inactive)	27.5 µM (inactive)	> 100 µM (inactive)	55.8 µM (inactive)		30.1 µM (inactive)	74.3 µM (inactive)
COc1ccccc1/C=C1\CCC(CCN(C)C)(C2=CCCC2)C1=O (stereo unspecified)	16.8 µM (inactive)	17.3 µM (inactive)	17.5 µM (inactive)	26.5 µM (inactive)	1.7 µM (inactive)	17.9 µM (inactive)	13.9 µM (inactive)	23.9 µM (inactive)	16.5 µM (inactive)
COC(=O)CC(C(C(=O)OC)C(=O)OC)N1C(=O)OCC1c1ccccc1 (stereo unspecified)	> 100 µM (inactive)		97.1 µM (inactive)		> 100 µM (inactive)	> 100 µM (inactive)	> 100 µM (inactive)		> 100 µM (inactive)
Cc1cc2c(cc1C)[n+]([O-])c(C(=O)CC(=O)C(=O)Nc1ccccc1C(C)C)c(C)[n+]2[O-]		> 100 µM (inactive)	> 100 µM (inactive)		> 100 µM (inactive)	> 100 µM (inactive)	> 100 µM (inactive)	> 100 µM (inactive)	> 100 µM (inactive)
COC(=O)c1ccccc1N(C(=O)c1ccccc1)c1ccccc1C	43 µM (inactive)	38.6 µM (inactive)	47.1 µM (inactive)	41.2 µM (inactive)	73.8 µM (inactive)	48.2 µM (inactive)			22.7 µM (inactive)
O=C1N[C@H]2[C@H](O)[C@H](O)[C@@H](O)[C@H](O)[C@@H]2c2cc3c(c(O)c21)OCO3 [PANCRATISTATIN]	0.0415 µM (active)	0.0412 µM (active)	0.0826 µM (active)	0.0598 µM (active)	0.0445 µM (active)	0.0388 µM (active)	0.649 µM (active)	0.0452 µM (active)	0.0237 µM (active)
CCn1c(C)nn2c(=O)c3ccccc3nc2c1=O	> 100 µM (inactive)	> 100 µM (inactive)	> 100 µM (inactive)	> 100 µM (inactive)	> 100 µM (inactive)	> 100 µM (inactive)		> 100 µM (inactive)	> 100 µM (inactive)
CC1=NN(c2ccccc2)C(=O)C1/N=N/c1ccc(Br)cc1C (stereo unspecified)	> 100 µM (inactive)	> 100 µM (inactive)	> 100 µM (inactive)	3.62 µM (inactive)	0.634 µM (active)	> 100 µM (inactive)	32.4 µM (inactive)	79.6 µM (inactive)	
CCOC(=O)Nc1ccc(S(=O)(=O)OC)cc1.CCOC(=O)Nc1ccc(S(=O)(=O)OC)cc1.NNC(=O)c1ccncc1	9.04 µM (inactive)	> 50 µM (inactive)	> 50 µM (inactive)	> 50 µM (inactive)	> 50 µM (inactive)	> 50 µM (inactive)	> 50 µM (inactive)	> 50 µM (inactive)	
CCCCCCCCC/C=C1\CCC(CN2CCOCC2)C1=O (stereo unspecified)	1.96 µM (inactive)	2.92 µM (inactive)	2.32 µM (inactive)	1.54 µM (inactive)	7.35 µM (inactive)	3.28 µM (inactive)	5.62 µM (inactive)	4.29 µM (inactive)	
CCNc1c(C(=O)N(CC)CC)c(=O)[nH]c2ncccc12	> 100 µM (inactive)	> 100 µM (inactive)	> 100 µM (inactive)		> 100 µM (inactive)	> 100 µM (inactive)		> 100 µM (inactive)	
O=C(/C=C1\NC(=O)c2ccccc2N1)c1ccncc1	> 100 µM (inactive)	> 100 µM (inactive)				> 100 µM (inactive)		> 100 µM (inactive)	
CC(C)c1ccc(O)c(Cc2cc(C(C)C)cc(Cc3cc(C(C)C)ccc3O)c2O)c1	2.01 µM (inactive)	1.61 µM (inactive)			2.07 µM (inactive)	1.61 µM (inactive)		2.05 µM (inactive)	1.41 µM (inactive)
c1ccc2c3c([nH]c2c1)C1C2CCCCN2C(c2ccncc2)N1CC3 (stereo unspecified)		27.2 µM (inactive)	28.6 µM (inactive)		24 µM (inactive)	37.2 µM (inactive)		42.8 µM (inactive)	23.6 µM (inactive)
CC1(C(=O)Nc2ccc3cc4ccccc4cc3c2)CC2(C)CC(C)(C1)C(O)NC2=O (stereo unspecified)	32.9 µM (inactive)	92 µM (inactive)	> 100 µM (inactive)	93.5 µM (inactive)	85.3 µM (inactive)	> 100 µM (inactive)		> 100 µM (inactive)	> 100 µM (inactive)
